Source: paper PMC9080520 (RSC Advances, 2018)

Test: Antioxidant assay: DPPH radical-scavenging activity
Conditions: read-out: Antioxidant activity IC50 (DPPH); DPPH method

First: C[C@@H]1O[C@@H](OC[C@H]2O[C@@H](Oc3c(-c4ccc(O)cc4)oc4cc(O)cc(O)c4c3=O)[C@H](O[C@@H]3O[C@H](CO)[C@@H](O)[C@H](O)[C@H]3O)[C@@H](O)[C@@H]2O)[C@H](O)[C@H](O)[C@H]1O [Compound 4, kaempferol-3-O-β-D-glucopyranosyl-(1 → 2)-[α-L-rhamnopyranosyl-(1 → 6)]-β-D-glucopyranoside]
Second: C[C@@H]1O[C@@H](O[C@H]2[C@H](Oc3c(-c4ccc(O)cc4)oc4cc(O)cc(O)c4c3=O)O[C@H](CO[C@@H]3O[C@H](CO)[C@@H](O)[C@H](O)[C@H]3O)[C@@H](O)[C@@H]2O)[C@H](O)[C@H](O)[C@H]1O [Compound 2, kaempferol-3-O-β-D-glucopyranosyl-(1 → 6)-[α-L-rhamnopyranosyl-(1 → 2)]-β-D-glucopyranoside]
The IC50 of the first is 1.5-fold higher: 257 ± 19.9 µM for the first, 170 ± 5.2 µM for the second.

First: O=C1O[C@H]([C@@H](O)CO)C(O)=C1O [V c, L-ascorbic acid, reference compound]
Second: O=c1c(O[C@@H]2O[C@H](CO)[C@@H](O)[C@H](O)[C@H]2O)c(-c2ccc(O)cc2)oc2cc(O)cc(O)c12 [Compound 6, astragalin]
The IC50 of the first is 2.9-fold lower: 33.9 ± 1.1 µM for the first, 100 ± 3.2 µM for the second.

Going from `O=c1c(O)c(-c2ccc(O)cc2)oc2cc(O)cc(O)c12` [Compound 5, kaempferol] to `O=c1c(O[C@@H]2O[C@H](CO)[C@@H](O)[C@H](O)[C@H]2O)c(-c2ccc(O)cc2)oc2cc(O[C@@H]3O[C@H](CO)[C@@H](O)[C@H](O)[C@H]3O)cc(O)c12` [Compound 8, kaempferol-3,7-di-O-β-D-glucopyranoside], the IC50 rises from 36.3 ± 1.1 µM to 407 ± 22.1 µM (11-fold). The first is the more potent here.

Going from kaempferol-3-O-rutinoside [Compound 11] to `C[C@@H]1O[C@@H](OC[C@H]2O[C@@H](O[C@H]3[C@H](Oc4c(-c5ccc(O)cc5)oc5cc(O)cc(O)c5c4=O)O[C@H](CO)[C@@H](O)[C@@H]3O)[C@H](O)[C@@H](O)[C@@H]2O)[C@H](O)[C@H](O)[C@H]1O` [Compound 10, kaempferol-3-O-α-L-rhamnopyranosyl-(1 → 6)-β-D-glucopyranosyl-(1 → 2)-β-D-glucopyranoside], the IC50 rises from 129 ± 9.2 µM to 209 ± 7.3 µM (1.6-fold). The first is the more potent here.

For `O=c1c(O)c(-c2ccc(O)cc2)oc2cc(O[C@@H]3O[C@H](CO)[C@@H](O)[C@H](O)[C@H]3O)cc(O)c12` [Compound 7, kaempferol-7-O-β-D-glucopyranoside], the IC50 was 77.6 ± 2.4 µM.
